IC50 data for 16 compounds are collected here from US6596772B1, “Phosphate mimics and methods of treatment using phosphatase inhibitors” (Sugen, Inc., priority 1999, dated 2003).

Holding throughout (test): PTP IC50 assay, fluorescent substrate DiFMUP
Assay type in all cases: biochemical

In one assay the target is T1, PTP EPSILON (Homo sapiens, UniProt P23469).
T1 construct: made in house; host or cells: Sf-9 insect cells (pFastBac-G2T); a pGEX 6P-1 construct also existed
The source says: The PTPepsilon cDNA was amplified from human placenta single-strand cDNA (Clontech RNA) using the following oligonucleotides: 5′oligo: 5′-[…]-3′ (SEQ ID NO: 6) 3′oligo: 5′-[…]-3′ (SEQ ID NO: 7) After cloning this PCR product into the Bam HI/Xho I sites of pGEX 6P-1, this phosphatase was subcloned using the same restriction sites in pFastBac-G2T.
(§1) The following in vitro assay procedure is preferred to determine the level of activity and effect of the different compounds of the present invention on one or more of the PTPs. Similar assays can be designed along the same lines for any PTP using techniques well known in the art.
(§2) The catalytic assays described herein are performed in a 96-well format. The general procedure begins with the determination of PTP optimal pH using a three-component buffer system that minimizes ionic strength variations across a wide range of buffer pH. Next, the Michaelis-Menten constant, or Km, is determined for the substrate 6,8-difluoro-4-methylumbelliferyl phosphate (DiFMUP). This Km value is subsequently used as the substrate reaction concentration for compound screening. Finally, the test PTP is exposed to varying concentrations of compound for fifteen minutes and allowed to react with substrate for ten minutes. The results are plotted as percent inhibition versus compound concentration and the IC50 interpolated from the plot.
(§3) All assays were performed using DiFMUP as substrate. The optimum pH and substrate Km was determined for each PTP used.
(§4) PTPase activity was assayed at 25° C. in a 100-μl reaction mixture containing an appropriate concentration of DiFMUP as substrate. The reaction was initiated by addition of the purified PTP and quenched after 10 min by addition of 1% H2O2/100 mM NaCl. The non-enzymatic hydrolysis of the substrate was corrected by measuring the control without the addition of the enzyme. The amount of DiFMU produced was determined from the increase in the fluorescence (360 nm excitation/460 nm emission) over that of background in the absence of PTPase. To determine the kinetic parameter, Km, the initial velocities were measured at various substrate concentrations and the data were fitted to the Michaelis equation where velocity=(Vmax*[S])/(Km+[S]), and [S]=substrate reaction concentration.
(§5) The effect of the compounds on PTP was evaluated at 25° C. using DiFMUP as substrate. PTP was pre-incubated for fifteen minutes with various concentrations of compound. Substrate was then added at a fixed concentration (usually equal to the Km previously calculated). After 10 minutes, the reaction was quenched. The hydrolysis of DiFMUP was followed as described above. The percent inhibition was calculated as follows: Percent Inhibition=[(control signal−compound signal)/control signal]×100%. The IC50 was then determined by interpolation of a percent inhibition versus compound concentration plot.
(§6) Plasmids designed for bacterial GST-PTP fusion protein expression were derived by insertion of PCR-generated human PTP fragments into pGEX vectors (Pharmacia Biotech). Several of these constructs were then used to subclone phosphatases into pFastBac-1 for expression in Sf-9 insect cells. Oligonucleotides used for the initial amplification of PTP genes are as described above. The cDNAs were prepared using the Gilbo BRL superscript preamplification system on RNAs purchased from Clontech.

Another assay deals with T2, PTP SHP2 (Homo sapiens, UniProt Q06124).
T2 construct: The catalytic domain was amplified using the following oligonucleotides; made in house; host or cells: Sf-9 insect cells (pFastBac-G2T)
T2 sequence (Q06124 247-517 limits assumed): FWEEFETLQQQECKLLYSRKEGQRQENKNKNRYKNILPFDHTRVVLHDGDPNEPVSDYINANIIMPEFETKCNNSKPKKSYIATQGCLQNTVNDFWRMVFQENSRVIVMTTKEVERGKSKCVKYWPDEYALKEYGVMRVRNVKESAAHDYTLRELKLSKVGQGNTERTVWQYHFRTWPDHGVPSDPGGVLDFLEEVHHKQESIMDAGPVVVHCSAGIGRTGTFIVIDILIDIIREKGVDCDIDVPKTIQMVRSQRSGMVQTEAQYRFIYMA
From the text: SHP-2 cDNA was used as described earlier (Vogel W., et al.,1993, Science, 259:1611-4). The catalytic domain was amplified using the following oligonucleotides 5′oligo: 5′-[…]-3′ (SEQ ID NO: 2) 3′oligo: 5′-[…]-3′ (SEQ ID NO: 3) and subsequently subcloned into BamH1-Xba-1 sites. It was then ligated into pfas Bac-G2T BamH1-Xba-1 sites.
as §1, §2, §3, §4, §5, §6

The target of the next assay is T3, PTP 1B (Homo sapiens, UniProt P18031).
T3 construct: made in house; host or cells: Sf-9 insect cells (pFastBac-G2T)
T3 sequence (P18031 1-435): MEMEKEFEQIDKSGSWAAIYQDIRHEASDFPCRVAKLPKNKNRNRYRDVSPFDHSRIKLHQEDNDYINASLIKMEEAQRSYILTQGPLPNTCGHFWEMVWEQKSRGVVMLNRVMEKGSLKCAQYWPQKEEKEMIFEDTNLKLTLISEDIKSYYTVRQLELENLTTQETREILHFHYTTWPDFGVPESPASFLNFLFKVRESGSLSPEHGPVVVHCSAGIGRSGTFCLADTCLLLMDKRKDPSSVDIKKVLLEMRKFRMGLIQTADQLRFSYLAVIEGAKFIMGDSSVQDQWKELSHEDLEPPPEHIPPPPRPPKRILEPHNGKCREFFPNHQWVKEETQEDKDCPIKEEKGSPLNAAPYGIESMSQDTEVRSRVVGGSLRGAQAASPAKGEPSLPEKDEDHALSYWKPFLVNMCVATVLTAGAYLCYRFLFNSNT
From the text: The PTP1b cDNA was amplified from human placenta single strand cDNA (Clontech RNA) using the following oligonucleotides: 5′oligo: 5′-[…] (SEQ ID NO: 4) 3′oligo: 5′-[…] (SEQ ID NO: 5) It was subsequently ligated into pFasBac G2TBamH1Xba-1 sites.
as §1, §2, §3, §4, §5, §6

[1] abbreviates: DiFMUP as substrate, 25° C., read-out: PTP IC50 Epilson.
The mark [2] stands for this setting: DiFMUP as substrate, 25° C., read-out: PTP IC50 SHP2.
[3] abbreviates: DiFMUP as substrate, 25° C., read-out: PTP IC50 1B.

Like-named read-outs stand apart in the source and are kept apart here. Where only a bound is given, the exact number is not on record here.

T1 sequence (P23469 80-393 limits assumed): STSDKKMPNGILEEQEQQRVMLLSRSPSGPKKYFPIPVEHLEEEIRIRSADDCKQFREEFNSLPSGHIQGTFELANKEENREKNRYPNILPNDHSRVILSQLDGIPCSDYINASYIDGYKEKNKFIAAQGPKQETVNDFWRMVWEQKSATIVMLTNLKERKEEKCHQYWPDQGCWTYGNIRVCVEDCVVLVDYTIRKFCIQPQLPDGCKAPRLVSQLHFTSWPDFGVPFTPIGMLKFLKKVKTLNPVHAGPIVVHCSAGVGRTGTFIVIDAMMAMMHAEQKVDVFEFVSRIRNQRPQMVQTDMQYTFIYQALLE

As for `CCn1c(-c2ccc(C(=O)Nc3ccc(OC)cc3)cc2)nc2cc(S(=O)(=O)C(F)(F)F)ccc21` [Example 38, 4-(1-Ethyl-5-trifluoromethanesulfonyl-1H-benzoimidazol-2-yl)-N-(4-methoxy-phenyl)-benzamide], the IC50 worked out at 5.1 µM on PTP EPSILON (setting [1]), 1.1 µM at PTP SHP2 (setting [2]) and 1.1 µM on PTP 1B (setting [3]).

`CCOC(=O)c1cccc(NC(=O)c2ccc(-c3nc4cc(S(=O)(=O)C(F)(F)F)ccc4n3CC)cc2)c1` [Example 39, 3-[4-(1-Ethyl-5-trifluoromethanesulfonyl-1H-benzoimidazol-2-yl)-benzoylamino]-benzoic acid ethyl ester]: the results for the 50% inhibitory concentration (IC50) on PTP EPSILON (setting [1]), at PTP SHP2 (setting [2]) and at PTP 1B (setting [3]) were 1.5 µM, 1.2 µM and 3.7 µM, respectively.

On to `CCn1c(-c2ccc(C(=O)NCCN3CCCC3)cc2)nc2cc(S(=O)(=O)C(F)(F)F)ccc21` [Example 40, 4-(1-Ethyl-5-trifluoromethanesulfonyl-1H-benzoimidazol-2-yl)-N-(2-pyrrolidin-1-yl-ethyl)-benzamide], for which the IC50 at PTP EPSILON (setting [1]) is more than 100 µM; on PTP SHP2 (setting [2]) it was more than 100 µM; on PTP 1B (setting [3]), more than 20 µM.

Consider `CCNC(=O)c1ccc(-c2nc3cc(S(=O)(=O)C(F)(F)F)ccc3n2CC)cc1` [Example 41, N-Ethyl-4-(1-ethyl-5-trifluoromethanesulfonyl-1H-benzoimidazol-2-yl)-benzamide], for which the IC50 on PTP EPSILON (setting [1]) was 13.5 µM; on PTP SHP2 (setting [2]) it was 19 µM; on PTP 1B (setting [3]), more than 20 µM.

In the case of `CCn1c(C(=O)O)nc2cc(S(=O)(=O)C(F)(F)F)ccc21` [Example 42, 1-Ethyl-5-trifluoromethanesulfonyl-1H-benzoimidazole-2-carboxylic acid], the figures for the IC50 at PTP EPSILON (setting [1]), at PTP SHP2 (setting [2]) and on PTP 1B (setting [3]) were 98 µM, more than 100 µM and more than 20 µM, respectively.

Turning to `CCCCN(C(=O)c1ccccc1)C(C(=O)NCC(=O)OC)c1ccc(S(=O)(=O)C(F)(F)F)cc1` (stereo not drawn) [Example 43, [2-(Benzoyl-butyl-amino)-2-(4-trifluoromethanesulfonyl-phenyl)-acetylamino]-acetic acid methyl ester], the IC50 on PTP EPSILON (setting [1]) was 53.9 µM; on PTP SHP2 (setting [2]) it was 74.6 µM; at PTP 1B (setting [3]), more than 20 µM.

With `CCCCNC(=O)C(c1ccc(S(=O)(=O)C(F)(F)F)cc1)N(Cc1ccccc1)C(=O)c1ccccc1` (stereo not drawn) [Example 44, N-Benzyl-N-[butylcarbamoyl-(4-trifluoromethanesulfonyl-phenyl)-methyl]-benzamide], the IC50 on PTP EPSILON (setting [1]) was found to be 19 µM; at PTP SHP2 (setting [2]), 22.7 µM; on PTP 1B (setting [3]) it was 15.8 µM.

On to `CCCCNC(=O)C(c1ccc(S(=O)(=O)C(F)(F)F)cc1)N(CCO)C(=O)c1ccccc1` (stereo not drawn) [Example 45, N-[Butylcarbamoyl-(4-trifluoromethanesulfonyl-phenyl)-methyl]-N-(2-hydroxy-ethyl)-benzamide], for which the IC50 at PTP EPSILON (setting [1]), on PTP SHP2 (setting [2]) and at PTP 1B (setting [3]) was more than 100 µM in each case.

For the compound `CCOC(=O)CNC(=O)C(c1ccc(S(=O)(=O)C(F)(F)F)cc1)N(C(C)=O)C1CC1` (stereo not drawn) [Example 46, [2-(Acetyl-cyclopropyl-amino)-2-(4-trifluoromethanesulfonyl-phenyl)-acetylamino]-acetic acid ethyl ester], the IC50 on PTP EPSILON (setting [1]), on PTP SHP2 (setting [2]) and at PTP 1B (setting [3]) was more than 100 µM each time.

For `Cc1cccc(C)c1NC(=O)C(c1ccc(S(=O)(=O)C(F)(F)F)cc1)N(C(=O)c1ccccc1)C1CCCCC1` (stereo not drawn) [Example 49, N-Cyclohexyl-N-[(2,6-dimethyl-phenylcarbamoyl)-(4-trifluoromethanesulfonyl-phenyl)-methyl]-benzamide], the IC50 at PTP EPSILON (setting [1]) worked out at 9.3 µM; on PTP SHP2 (setting [2]), 10.6 µM; at PTP 1B (setting [3]), 8.3 µM.

For the compound `CCCN(C(C)=O)C(C(=O)NCC(=O)OCC)c1ccc(S(=O)(=O)C(F)(F)F)cc1` (stereo not drawn) [Example 50, [2-(Acetyl-propyl-amino)-2-(4-trifluoromethanesulfonyl-phenyl)-acetylamino]-acetic acid ethyl ester], the IC50 at PTP EPSILON (setting [1]), at PTP SHP2 (setting [2]) and on PTP 1B (setting [3]) was more than 100 µM each time.

Take `CCOC(=O)CNC(=O)C(c1ccc(S(=O)(=O)C(F)(F)F)cc1)N(C(C)=O)C1CCCCC1` (stereo not drawn) [Example 51, [2-(Acetyl-cyclohexyl-amino)-2-(4-trifluoromethanesulfonyl-phenyl)-acetylamino]-acetic acid ethyl ester]: the IC50 on PTP EPSILON (setting [1]), at PTP SHP2 (setting [2]) and at PTP 1B (setting [3]) was more than 100 µM in each case.

Turning to `O=C(O)COc1ccc(S(=O)(=O)c2ccc(Oc3ccc(S(=O)(=O)C(F)(F)F)cc3[N+](=O)[O-])cc2)cc1` [Example 52, {4-[4-(2-Nitro-4-trifluoromethanesulfonyl-phenoxy)-benzenesulfonyl]-phenoxy}-acetic acid], the values for the IC50 at PTP EPSILON (setting [1]), on PTP SHP2 (setting [2]) and at PTP 1B (setting [3]) were 64.5 µM, 8 µM and more than 20 µM, respectively.

Take `O=C(O)c1ccc(OCCOc2ccc(S(=O)(=O)C(F)(F)F)cc2[N+](=O)[O-])cc1` [Example 53, 4-[2-(2-Nitro-4-trifluoromethanesulfonyl-phenoxy)-ethoxy]-benzoic acid]: the IC50 on PTP EPSILON (setting [1]) came to 22.2 µM; on PTP SHP2 (setting [2]), 1.5 µM; at PTP 1B (setting [3]), 1.5 µM.

Regarding `O=[N+]([O-])c1ccccc1NCC(O)COc1ccc(S(=O)(=O)C(F)(F)F)cc1[N+](=O)[O-]` (stereo not drawn) [Example 58, 1-(2-Nitro-phenylamino)-3-(2-nitro-4-trifluoromethanesulfonyl-phenoxy)-propan-2-ol], the IC50 on PTP EPSILON (setting [1]) was 29.1 µM; on PTP SHP2 (setting [2]), 4.4 µM; on PTP 1B (setting [3]), 9.4 µM.

As for `O=[N+]([O-])c1ccc(NCC(COc2ccc(S(=O)(=O)C(F)(F)F)cc2[N+](=O)[O-])Oc2ccc(S(=O)(=O)C(F)(F)F)cc2[N+](=O)[O-])cc1` (stereo not drawn) [Example 59, [2,3-Bis-(2-nitro-4-trifluoromethanesulfonyl-phenoxy)-propyl]-(4-nitro-phenyl)-amine], the figures for the IC50 on PTP EPSILON, on PTP SHP2 and on PTP 1B were 38.1 µM, 0.2 µM and 0.9 µM, respectively.
